pEC50: −log10 of the molar value. Active and inactive are the calls of the source. The rule behind the calls is not given here.
Target: Mu-type opioid receptor (Homo sapiens) + Delta-type opioid receptor (Homo sapiens) (UniProt P35372+P41143)
Experiment: OPRM1-OPRD1 heterodimer agonist potency – cell-based, luminescence, dose response (AID 588407);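 note: potency of agonists raising the heterodimer signal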
Conditions: cells, MOR-DOR heterodimerization

Chain of Mu-type opioid receptor (Homo sapiens) + Delta-type opioid receptor (Homo sapiens) (P35372 whole entry, looked up): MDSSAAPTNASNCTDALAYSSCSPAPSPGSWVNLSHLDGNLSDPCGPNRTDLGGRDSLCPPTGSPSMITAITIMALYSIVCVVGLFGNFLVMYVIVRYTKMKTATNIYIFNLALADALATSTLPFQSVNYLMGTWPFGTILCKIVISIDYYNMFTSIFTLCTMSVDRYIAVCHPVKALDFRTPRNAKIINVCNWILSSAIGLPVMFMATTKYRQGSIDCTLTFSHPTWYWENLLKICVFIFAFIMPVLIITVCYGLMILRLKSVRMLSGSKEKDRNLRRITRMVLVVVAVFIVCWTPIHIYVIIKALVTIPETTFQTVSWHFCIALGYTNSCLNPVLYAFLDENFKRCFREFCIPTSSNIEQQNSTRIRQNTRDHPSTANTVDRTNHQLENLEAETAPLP
Chain of Mu-type opioid receptor (Homo sapiens) + Delta-type opioid receptor (Homo sapiens) (P41143 whole entry, looked up): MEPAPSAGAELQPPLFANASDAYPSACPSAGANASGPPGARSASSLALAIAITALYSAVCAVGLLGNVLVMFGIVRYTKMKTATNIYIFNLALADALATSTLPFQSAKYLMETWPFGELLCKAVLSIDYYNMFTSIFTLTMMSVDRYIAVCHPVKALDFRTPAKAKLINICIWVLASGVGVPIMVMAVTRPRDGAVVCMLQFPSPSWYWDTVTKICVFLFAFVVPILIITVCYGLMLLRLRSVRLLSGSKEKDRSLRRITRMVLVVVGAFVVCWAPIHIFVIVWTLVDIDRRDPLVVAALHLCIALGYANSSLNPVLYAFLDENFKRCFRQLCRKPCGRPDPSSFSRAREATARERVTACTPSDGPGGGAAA

Row | SMILES | pEC50 | EC50
1 | COC(=O)c1cc2c(n1S(=O)(=O)c1ccc(C)cc1)C(=O)C(=O)c1[nH]cc(C(=O)OCc3ccccc3)c1-2 | 5.59 | –
2 | Cc1nc2nc(C)n(CCN3CCOCC3)c(=O)c2c(-c2cccc([N+](=O)[O-])c2)c1C(=O)CCCCCCCCCCN1CCC(c2ccccc2)(c2ccccc2)CC1 | – | inactive
3 | CC(CC(=O)N(CCC1=CCCCC1)c1c(N)n(Cc2ccccc2)c(=O)[nH]c1=O)c1ccccc1 (stereo unspecified) | – | > 92.5 µM (inactive)
4 | CCN1CCN(S(=O)(=O)c2ccc(Cl)c(C(=O)N(CCc3ccccc3)Cc3ccccc3)c2)CC1 | – | inactive
5 | Cc1cc(/C=C2\SC(=Nc3ccccc3)NC2=O)c(C)n1-c1ccc(S(N)(=O)=O)cc1 | 5.82 | –
6 | CN(C)C(CNC(=O)c1ccc(Br)cc1)c1ccco1 (stereo unspecified) | – | inactive
7 | COc1ccc(C(CNC(=O)c2cncc(Br)c2)N(C)C)cc1 (stereo unspecified) | 5.69 | –
8 | Cc1ccc2nc(SC(C(=O)Nc3ccc(F)cc3)c3ccccc3)[nH]c2c1 (stereo unspecified) | – | > 92.5 µM (inactive)
9 | CCOC(=O)C1(CCCc2ccccc2)CCN(Cc2cnn(C)c2)CC1 | 5.34 | –
10 | CC1CN(C)C(C)c2c1oc1ccc(N)cc21 (stereo unspecified) | – | inactive
11 | CCOC(=O)C1(CCOc2ccccc2)CCN(Cc2cccn2-c2cccnc2)CC1 | 5.78 | –
12 | CN1CCN(c2ccc(NC(=O)c3ccc(-c4cccc([N+](=O)[O-])c4)o3)cc2)CC1 | – | inactive
13 | COc1ccccc1NC(=O)c1sc2nc(C)cc(C)c2c1N | – | > 92.5 µM (inactive)
14 | CCOC(=O)C1(CC2CCCCO2)CCN(Cc2ccc(OC)cc2F)CC1 (stereo unspecified) | – | inactive
15 | Cc1cc2[nH]c3c4ccccc4nc(C)c3c2cc1C | 5.12 | –
16 | COc1ccc(C2CC(c3ccc(OC)cc3)n3nc(NC(=O)c4cccs4)nc3N2)cc1 (stereo unspecified) | – | inactive
17 | Cc1ccccc1N(CC(=O)N/N=C/c1ccc(F)cc1)C(=O)c1ccccc1 | – | inactive
18 | Cc1ccc(C)c(-n2cc(CNCCCn3cccn3)c(-c3ccccc3)n2)c1 | 6.18 | –
19 | COc1cccc(CC2(CO)CCCN(Cc3ccccc3-c3ccco3)C2)c1 (stereo unspecified) | 5.05 | –
20 | COc1ccc(-c2nc(CN3CCC(C(=O)NC4CCCc5ccccc54)CC3)c(C)o2)cc1OC (stereo unspecified) | 5.72 | –
21 | COc1ccc(C(C(=O)NC2CCCCC2)N(C(=O)Cc2c[nH]c3ccccc23)c2ccc(NC(C)=O)cc2)cc1OC (stereo unspecified) | – | > 92.5 µM (inactive)
22 | CN1C2C=C(N(CCc3c[nH]c4ccccc34)C(=O)c3ccc(Cl)cc3)CC1CC2 (stereo unspecified) | 5.32 | –
23 | CN(C)C(CNC(=O)c1ccc(C(F)(F)F)cc1)c1ccco1 (stereo unspecified) | 5.11 | –
24 | COc1ccc(-n2c3c(cc(C(=O)NNc4ccccc4C)c2=O)C(=O)CC(C)(C)C3)cc1 | 5.59 | –
25 | Cc1cc(N2CCN(C)CC2)ccc1NC(=O)c1ccc(-c2ccc(Cl)cc2)o1 | – | inactive
26 | CN(C)C(CNC(=O)c1ccc2ccccc2c1)c1ccco1 (stereo unspecified) | – | inactive

Row | SMILES | pEC50 | EC50
27 | COC(=O)C1=C(C)N(CCCC(=O)O)C(=O)NC1c1ccccc1OS(=O)(=O)c1ccccc1[N+](=O)[O-] (stereo unspecified) | 5.06 | –
28 | CCOC(=O)C1(c2ccccc2)CCN(CCC(=O)Nc2ccc(F)cc2)CC1 | 5.63 | –
29 | CC(=O)Nc1ccc(CN2CCCC(C(=O)c3cccc(C(F)(F)F)c3)C2)cc1 (stereo unspecified) | 5.03 | –
30 | COc1ccc(-n2cc(CNCc3cccnc3)c(-c3cccc(F)c3)n2)cc1 | – | inactive
31 | COc1cc(NC(=O)c2cccc(C)c2)ccc1NC(=O)c1cc2ccccc2o1 | – | inactive
32 | O=C(Nc1ccccc1)c1ccc(NC2CCCCC2)c(S(=O)(=O)N2CCOCC2)c1 | – | inactive
33 | CN1C(CC(=O)Nc2ccc(Br)cc2)c2ccccc2CC1(C)C (stereo unspecified) | 5.03 | –
34 | CN1CCN(Cc2nc3ccccc3c(=O)n2Cc2nc(-c3ccc4ccccc4c3)cs2)CC1 | – | > 10.3 µM (inactive)
35 | CN(C)C(CNC(=O)Cc1ccc([N+](=O)[O-])cc1)c1ccccc1 (stereo unspecified) | 5.11 | –
36 | CCC(=O)C(CCN1CCOCC1)(c1ccccc1)c1ccccc1 | 6.01 | –
37 | CCOC(=O)C1(Cc2ccccc2)CCN(Cc2cccn2-c2nccs2)CC1 | – | inactive
38 | Cc1ccc(C)c(-n2cc(CNC(C)Cn3cncn3)c(-c3ccccc3)n2)c1 (stereo unspecified) | – | inactive
39 | CN(C)c1ccc(C(CNC(=O)Cc2cccc3ccccc23)N(C)C)cc1 (stereo unspecified) | – | inactive
40 | COc1cccc(C(=O)Nc2ccc3c(c2)C(=O)c2ccccc2C3=O)c1 | 5.17 | –
41 | Cc1ccc2nc(N(CCCN(C)C)C(=O)c3ccc(S(=O)(=O)N4CCc5ccccc5C4)cc3)sc2c1 | 5.05 | –
42 | CCOC(=O)C1(CC2CCCCO2)CCN(Cc2cc(F)ccc2-n2cccn2)CC1 (stereo unspecified) | 5.06 | –
43 | Cc1ccc2c(C)c(C(=O)N(Cc3cccs3)C3CCS(=O)(=O)C3)oc2c1 (stereo unspecified) | 5.15 | –
44 | CN(C(=O)Cc1ccc(Cl)c(Cl)c1)C(CN1CCCC1)c1cccc(OCC(=O)O)c1 (stereo unspecified) | – | inactive
45 | Brc1ccc(NC2=Nc3ccccc3CC2)cc1 | – | inactive
46 | O=c1c2ccc(Cl)cc2[nH]c(=S)n1Cc1cccnc1 | 5.07 | –
47 | CN1CCN(c2ccc(NC(=O)c3ccc(-c4ccc(Br)cc4)o3)cc2)CC1 | 5.72 | –
48 | COc1cc2c3cc1Oc1cc(ccc1O)C[C@@H]1c4c(cc(OC)c(O)c4Oc4ccc(cc4)C[C@H]3N(C)CC2)CCN1C | – | inactive
49 | CC1[C@H]2Cc3ccc(O)cc3[C@]1(C)CCN2C (stereo partly specified) | – | inactive
50 | COC(=O)CCCNC(=O)c1ccc(OC2CCN(CCc3ccccc3)CC2)cc1 | – | inactive
51 | CN(C)C(CNC(=S)Nc1cccc(Cl)c1)c1cccnc1 (stereo unspecified) | 6.39 | –
52 | OC(CN1CCN(C(c2ccccc2)c2ccccc2)CC1)c1ccccc1 (stereo unspecified) | – | inactive

Row | SMILES | pEC50 | EC50
53 | CN(C)C(CNC(=O)C1CC(=O)N(Cc2ccccc2)C1)c1ccccc1 (stereo unspecified) | – | inactive
54 | COc1ccc(C2C(C#N)=C(N)N(c3sc4c(c3C#N)CCCC4)C3=C2C(=O)CC(C)(C)C3)cc1 (stereo unspecified) | 5.34 | –
55 | CCOc1ccc(Nc2c3ccccc3nc3ccccc23)cc1 | – | inactive
56 | Cc1cc(=O)oc2cc(NC(=O)C3COc4ccccc4O3)ccc12 (stereo unspecified) | – | inactive
57 | COc1ccc(C(CNC(=O)C(C)c2ccc3cc(OC)ccc3c2)N(C)C)cc1 (stereo unspecified) | – | inactive
58 | COc1ccc(C(CNC(=O)CSc2ccccc2C)N(C)C)cc1 (stereo unspecified) | 5.34 | –
59 | COc1ccc(NS(=O)(=O)c2ccc(O)c(NC(=O)c3cc4c(C)nn(-c5ccc(F)cc5)c4s3)c2)cc1 | – | > 92.5 µM (inactive)
60 | COc1ccc(-c2nn(-c3ccccc3C)cc2CNCc2cccnc2)cc1F | 5.11 | –
61 | Clc1ccc2c(N/N=C/c3ccccc3Br)ccnc2c1 | 5.01 | –
62 | CN(C)C(CNC(C(=O)Nc1ccc([N+](=O)[O-])cc1Br)c1ccccc1)c1ccccc1 (stereo unspecified) | 5.01 | –
63 | COC(=O)C1=CO[C@@H](C)[C@@H]2CN(CCc3c[nH]c4ccccc34)CC[C@H]12 | 5.39 | –
64 | CCOC(=O)c1c(C)[nH]c(C(=O)OCC(O)=C(C#N)c2nc3ccccc3[nH]2)c1C | – | > 92.5 µM (inactive)
65 | O=C(COc1ccc(/C=N/NC(=O)c2cc3ccccc3o2)cc1Br)Nc1ccccc1 | 5.01 | –
66 | COC(=O)C(Cc1cccc(C)n1)(c1ccccc1)c1ccccc1 | 5.41 | –
67 | CCOC(=O)C1(c2ccccc2)CCN(CCC(=O)Nc2cccc(Br)c2)CC1 | 5.06 | –
68 | CCOC(=O)C1(CCOc2ccccc2)CCN(Cc2cnc(C)s2)CC1 | 5.10 | –
69 | CN(C)CCCN(C(=O)c1ccc(Br)s1)c1nc2cc3c(cc2s1)OCCO3 | – | inactive
70 | Cc1ccc(C)c(NC(=S)NCC(c2ccccc2)N(C)C)c1 (stereo unspecified) | 6.27 | –
71 | CCN1CCN(Cc2ccc(NC(=O)c3ccc(C)c(NC(=O)c4c[nH]c5cc(C(F)(F)F)ccc5c4=O)c3)cc2C(F)(F)F)CC1 | 5.02 | –
72 | Cc1ccc(CC(=O)NCC(c2ccco2)N(C)C)cc1C (stereo unspecified) | 5.04 | –
73 | CCOC(=O)C1(CCOc2ccccc2)CCN(Cc2ccc3c(c2)OCCO3)CC1 | – | inactive
74 | CCCC(=O)NC(C)C(c1cccs1)N1CCN(c2ccccc2)CC1 (stereo unspecified) | – | inactive
75 | CCN(c1nc(N)c(C(=O)N=C(N)N)nc1Cl)C(C)C | 5.02 | –
76 | CN1CCN(c2ccc(NC(=O)c3ccc(-c4ccccc4F)o3)cc2)CC1 | 5.49 | –
77 | CCCCCCCCCCOC(=O)Cn1c(COc2ccccc2C)[n+](C)c2ccccc21 | – | inactive
78 | OCC1(CCc2ccccc2)CCN(Cc2cccn2-c2cccnc2)CC1 | 5.33 | –

Row | SMILES | pEC50 | EC50
79 | CC1(NC(=O)CC(c2ccccc2)(c2ccccc2)c2ccccc2)CCN(CCCc2ccccc2)C1=O (stereo unspecified) | 6.05 | –
80 | Cc1ccc(CSCC(=O)N/N=C/c2sccc2C)cc1 | 5.22 | –
81 | Cc1ccc(C2(O)CN(c3ccccc3)C3=[N+]2CCS3)cc1 (stereo unspecified) | 5.53 | –
82 | CCN(Cc1ccccc1)S(=O)(=O)c1ccc(C(=O)N(CCCN(C)C)c2nc3c(C)c(C)ccc3s2)cc1 | – | inactive
83 | Cc1cc(N2CCN(c3ccc([N+](=O)[O-])c4cccnc34)CC2)c2ccccc2n1 | – | > 92.5 µM (inactive)
84 | Cn1c(-c2c(N)n(CCc3ccccc3)c3nc4ccccc4nc23)nc2ccccc21 | 5.50 | –
85 | Cc1c(CCOC(=O)c2ccccc2)sc[n+]1CC(=O)c1ccc(Br)cc1 | – | inactive
86 | COc1ccc(C(C)NCCC(c2ccc(OC(C)C)cc2)c2ccccc2OC)cc1 (stereo unspecified) | – | inactive
87 | COc1ccc(CNCCc2c[nH]c3ccccc23)c(OC)c1C | – | inactive
88 | Cc1cc(Cl)ccc1OCC(=O)N[C@@H](Cc1ccccc1)c1nc2ccccc2[nH]1 | – | inactive
89 | Cc1ccc2c(Cl)c(Cc3ccccc3)c(=S)[nH]c2n1 | – | inactive
90 | CCn1cc(CNCc2cn(-c3ccccc3C)nc2-c2ccc(OC)c(F)c2)cn1 | 5.76 | –
91 | CCc1ccc(NC(=O)N(CCCN2CCOCC2)Cc2cccs2)cc1 | – | inactive
92 | OCC1(CCc2ccccc2)CCN(Cc2ccccc2Cl)CC1 | 5.04 | –
93 | CN(C)C(CNC(=O)NC1CCCCC1)c1cccnc1 (stereo unspecified) | 5.89 | –
94 | COc1ccc(C(CNC(=O)CCc2ccsc2)N(C)C)cc1 (stereo unspecified) | 6.70 | –
95 | Cc1cccc(NC(=S)NCC(c2cccnc2)N(C)C)c1 (stereo unspecified) | 5.99 | –
96 | Cc1cccc2cc(C(c3nnnn3Cc3ccccc3)N3CCN(C)CC3)c(=O)[nH]c12 (stereo unspecified) | – | inactive
97 | CN(C)CCCN(C(=O)c1ccc(S(=O)(=O)N2CCc3ccccc3C2)cc1)c1nc2ccc(F)cc2s1 | 5.90 | –
98 | OC(CNCCC(c1ccccc1)c1ccccc1)COc1ccccc1 (stereo unspecified) | – | inactive
99 | CN(C)CCCN(C(=O)c1ccc(S(=O)(=O)N(C)Cc2ccccc2)cc1)c1nc2c(F)cccc2s1 | 5.30 | –
100 | O=C(CSc1ccc(Cl)cc1)Nc1ccc(-c2nc3ccccc3[nH]2)cc1 | – | > 92.5 µM (inactive)
101 | COCC1CCN(Cc2cn(-c3ccccc3F)nc2-c2cc(C)sc2C)CC1 | – | inactive
